Measurements as given in patent US5134124A, “Use of a statin derivative in the treatment of eye complaints” (Sanofi, priority 1989, dated 1992).

Columns and labels:
human plasma renin = molecular target: T1, human plasma renin (Homo sapiens, UniProt P00797); test: Inhibition of human plasma renin activity at pH 7.4; assay type: biochemical; conditions: method of EP 211 744, read-out: 50% inhibitory concentration (IC50), inhibition of human plasma renin activity
T1 construct: from tissue; host or cells: human plasma
T1 sequence (P00797 67-406): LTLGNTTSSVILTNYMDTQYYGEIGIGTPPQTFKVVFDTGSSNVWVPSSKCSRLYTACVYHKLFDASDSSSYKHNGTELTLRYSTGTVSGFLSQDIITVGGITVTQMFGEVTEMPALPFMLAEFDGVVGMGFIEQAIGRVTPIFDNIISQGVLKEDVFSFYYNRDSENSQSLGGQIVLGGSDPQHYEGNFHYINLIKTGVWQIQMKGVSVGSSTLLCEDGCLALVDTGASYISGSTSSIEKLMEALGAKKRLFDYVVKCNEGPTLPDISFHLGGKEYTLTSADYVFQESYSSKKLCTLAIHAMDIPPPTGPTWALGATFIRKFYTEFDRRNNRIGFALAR
Description: The inhibition of human plasma renin activity at pH 7.4 was measured for this compound (I) according to the method described in patent application EP 211 744.

[1] = system: intraocular pressure in rabbits; test: Effect on the intraocular pressure in rabbits after increase by intravenous injection of a 5% glucose solution; assay type: in vivo; conditions: eye lotion, pressure increased by intravenous injection of a 5% glucose solution

IC50 (human plasma renin): 1 pM
Compound: CCC(C)C(NC(=O)CC(O)C(CC1CCCCC1)NC(=O)C(Cc1cnc[nH]1)NC(=O)C(Cc1ccccc1)NC(=O)CCc1cccnc1)C(=O)NC(O)C(C)CO (centres unmarked) [compound (I), N-(3-pyridylpropionyl)phenylalanylhistidyl(cyclohexyl)statyl-N-(1,3-dihydroxy-2-methylpropyl)isoleucinamide]
effect on the intraocular pressure [1]: enables the intraocular pressure to return rapidly to its normal value
